# Test results from ChEMBL document CHEMBL1201862, “PubChem BioAssay data set” (2004).
# The source made the active and inactive calls.
# Experiments:
# [1] = human group III sPLA2 inhibitors, dose response, biochemical, QFRET, IC50 (AID 743457);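 further: green fluorescence rise as the enzyme cleaves BODIPY PC-A2 in liposomes; potency for inhibition of the enzyme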
# Albumin = Albumin (Bos taurus, UniProt P02769); assay: Counterscreen for inhibitors of T-cell receptor (TCR)-CD3 interaction: Fluorescence-based biochemical high throughput dose response assay to identify inhibitors of T-cell receptor (TCR)-CD3 interaction using a TAMRA-labeled BSA probe.; assay type: functional
# Sequence of Albumin (P02769 whole entry): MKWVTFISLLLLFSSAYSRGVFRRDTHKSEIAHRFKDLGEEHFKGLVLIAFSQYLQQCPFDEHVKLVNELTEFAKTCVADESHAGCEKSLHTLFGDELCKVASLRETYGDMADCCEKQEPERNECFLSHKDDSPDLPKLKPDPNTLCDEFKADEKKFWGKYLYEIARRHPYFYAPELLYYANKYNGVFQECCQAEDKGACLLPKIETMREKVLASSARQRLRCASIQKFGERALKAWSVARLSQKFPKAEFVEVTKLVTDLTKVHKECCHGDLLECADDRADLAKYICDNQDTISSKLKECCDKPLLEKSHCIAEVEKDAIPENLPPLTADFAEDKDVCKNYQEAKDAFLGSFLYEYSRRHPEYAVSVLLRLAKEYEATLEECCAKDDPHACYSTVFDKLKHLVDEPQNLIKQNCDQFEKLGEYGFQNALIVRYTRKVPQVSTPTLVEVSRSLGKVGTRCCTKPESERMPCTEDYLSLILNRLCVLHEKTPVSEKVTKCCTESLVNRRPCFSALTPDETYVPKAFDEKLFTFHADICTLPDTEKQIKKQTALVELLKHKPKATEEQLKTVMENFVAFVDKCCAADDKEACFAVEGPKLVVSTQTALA
# [2] = target: Glucose-6-phosphate 1-dehydrogenase (Homo sapiens, UniProt P11413); assay: human G6PD enzyme inhibitors, dose response, selectivity assay for P. falciparum G6PD inhibitor project, biochemical, fluorescence (AID 504792); assay type: functional
# Sequence of Glucose-6-phosphate 1-dehydrogenase (P11413 whole entry): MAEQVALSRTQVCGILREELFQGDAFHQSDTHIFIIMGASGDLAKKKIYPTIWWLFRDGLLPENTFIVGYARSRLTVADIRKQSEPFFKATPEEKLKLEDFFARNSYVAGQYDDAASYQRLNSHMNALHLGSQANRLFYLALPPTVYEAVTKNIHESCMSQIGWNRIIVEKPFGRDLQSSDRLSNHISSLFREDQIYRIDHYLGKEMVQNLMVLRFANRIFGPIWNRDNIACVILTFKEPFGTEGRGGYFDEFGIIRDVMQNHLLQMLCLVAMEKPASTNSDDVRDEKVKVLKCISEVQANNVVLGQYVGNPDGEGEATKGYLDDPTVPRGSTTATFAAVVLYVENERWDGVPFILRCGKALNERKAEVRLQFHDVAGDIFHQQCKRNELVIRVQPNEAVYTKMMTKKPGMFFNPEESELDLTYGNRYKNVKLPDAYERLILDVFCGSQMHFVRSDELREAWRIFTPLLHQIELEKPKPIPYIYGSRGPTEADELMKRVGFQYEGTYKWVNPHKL
# Nonstructural protein 1 = Nonstructural protein 1 (Influenza A virus, UniProt Q194T2); assay type: functional, Influenza A virus (A/California/07/2009(H1N1))
# Sequence of Nonstructural protein 1 (Q194T2 whole entry): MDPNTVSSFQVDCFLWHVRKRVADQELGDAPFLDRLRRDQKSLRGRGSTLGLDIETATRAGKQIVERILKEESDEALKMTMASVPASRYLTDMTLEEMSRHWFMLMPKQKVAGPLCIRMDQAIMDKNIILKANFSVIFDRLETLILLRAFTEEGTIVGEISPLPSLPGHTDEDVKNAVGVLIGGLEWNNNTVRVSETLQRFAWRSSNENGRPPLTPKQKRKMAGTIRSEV
# Vero = Vero cell cytotoxicity, cytotoxicity control for flavivirus capping enzyme inhibitors (AID 588742); assay type: functional; details: Chlorocebus sabaeus
# Genome polyprotein = Genome polyprotein (dengue virus type 2, UniProt P29990); assay: Dengue-2 NS5 methyltransferase inhibitors, primary screen, biochemical, confirmation dose response (AID 588689); assay type: functional
# [3] = target: T1, Mitochondrial peptide methionine sulfoxide reductase (Bos taurus, UniProt P54149); assay: Absorbance-based biochemical high throughput dose response assay for activators of Methionine sulfoxide reductase A (MsrA).; assay type: functional
# T1 sequence (P54149 whole entry): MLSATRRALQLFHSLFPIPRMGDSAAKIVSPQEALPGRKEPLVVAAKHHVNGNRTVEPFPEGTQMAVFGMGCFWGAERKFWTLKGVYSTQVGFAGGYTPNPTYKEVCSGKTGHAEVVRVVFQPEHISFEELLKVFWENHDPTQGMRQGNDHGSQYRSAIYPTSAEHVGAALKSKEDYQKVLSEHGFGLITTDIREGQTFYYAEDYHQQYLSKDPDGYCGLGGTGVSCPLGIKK
# [4] = target: T2, Rac GTPase-activating protein 1 (Homo sapiens, UniProt Q9H0H5); assay: MgcRacGAP GTPase-activating activity inhibitors, confirmation, biochemical, ADP Hunter fluorescence, primary and confirmatory (AID 624330); assay type: functional
# T2 sequence (Q9H0H5 whole entry): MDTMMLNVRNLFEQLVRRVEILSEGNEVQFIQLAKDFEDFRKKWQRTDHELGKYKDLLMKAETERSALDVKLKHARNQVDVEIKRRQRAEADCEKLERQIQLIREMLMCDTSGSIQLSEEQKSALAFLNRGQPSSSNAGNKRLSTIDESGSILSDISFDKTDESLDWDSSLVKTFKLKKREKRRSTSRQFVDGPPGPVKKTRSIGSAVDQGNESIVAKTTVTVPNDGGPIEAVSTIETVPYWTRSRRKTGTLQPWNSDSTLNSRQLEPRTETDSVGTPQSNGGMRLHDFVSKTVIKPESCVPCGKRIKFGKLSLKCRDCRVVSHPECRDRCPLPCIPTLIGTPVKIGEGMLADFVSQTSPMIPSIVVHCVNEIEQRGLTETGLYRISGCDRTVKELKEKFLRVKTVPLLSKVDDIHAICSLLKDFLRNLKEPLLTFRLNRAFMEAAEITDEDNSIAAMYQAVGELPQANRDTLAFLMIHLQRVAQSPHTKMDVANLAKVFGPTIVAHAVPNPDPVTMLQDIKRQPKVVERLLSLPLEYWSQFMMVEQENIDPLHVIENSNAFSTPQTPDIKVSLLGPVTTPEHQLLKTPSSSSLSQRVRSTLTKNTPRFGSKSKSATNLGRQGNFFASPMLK
# Caspase-6 = target: T3, Caspase-6 (Homo sapiens, UniProt P55212); assay: human caspase-6 inhibitors, dose response, biochemical, VEID-R110 fluorescence, cherry-pick (AID 720632)
# T3 sequence (P55212 whole entry): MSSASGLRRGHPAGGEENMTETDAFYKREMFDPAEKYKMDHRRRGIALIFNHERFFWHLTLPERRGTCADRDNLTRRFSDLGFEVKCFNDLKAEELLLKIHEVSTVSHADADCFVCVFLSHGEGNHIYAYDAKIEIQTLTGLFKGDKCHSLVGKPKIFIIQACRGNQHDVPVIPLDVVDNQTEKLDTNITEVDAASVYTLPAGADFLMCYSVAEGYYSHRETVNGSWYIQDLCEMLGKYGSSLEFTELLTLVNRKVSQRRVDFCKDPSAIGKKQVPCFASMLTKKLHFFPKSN
# [5] = target: Tyrosyl-DNA phosphodiesterase 2 (Homo sapiens, UniProt O95551); assay: human TDP2 enzyme inhibitors, dose response, biochemical, epi absorbance, IC50 (AID 743297)
# Beta-galactosidase = Beta-galactosidase (Escherichia coli, UniProt Q8VNN2); assay: Dose response counterscreen for EBI2 assay utilizing the enzyme, b-galactosidase.; assay type: functional
# Sequence of Beta-galactosidase (Q8VNN2 whole entry): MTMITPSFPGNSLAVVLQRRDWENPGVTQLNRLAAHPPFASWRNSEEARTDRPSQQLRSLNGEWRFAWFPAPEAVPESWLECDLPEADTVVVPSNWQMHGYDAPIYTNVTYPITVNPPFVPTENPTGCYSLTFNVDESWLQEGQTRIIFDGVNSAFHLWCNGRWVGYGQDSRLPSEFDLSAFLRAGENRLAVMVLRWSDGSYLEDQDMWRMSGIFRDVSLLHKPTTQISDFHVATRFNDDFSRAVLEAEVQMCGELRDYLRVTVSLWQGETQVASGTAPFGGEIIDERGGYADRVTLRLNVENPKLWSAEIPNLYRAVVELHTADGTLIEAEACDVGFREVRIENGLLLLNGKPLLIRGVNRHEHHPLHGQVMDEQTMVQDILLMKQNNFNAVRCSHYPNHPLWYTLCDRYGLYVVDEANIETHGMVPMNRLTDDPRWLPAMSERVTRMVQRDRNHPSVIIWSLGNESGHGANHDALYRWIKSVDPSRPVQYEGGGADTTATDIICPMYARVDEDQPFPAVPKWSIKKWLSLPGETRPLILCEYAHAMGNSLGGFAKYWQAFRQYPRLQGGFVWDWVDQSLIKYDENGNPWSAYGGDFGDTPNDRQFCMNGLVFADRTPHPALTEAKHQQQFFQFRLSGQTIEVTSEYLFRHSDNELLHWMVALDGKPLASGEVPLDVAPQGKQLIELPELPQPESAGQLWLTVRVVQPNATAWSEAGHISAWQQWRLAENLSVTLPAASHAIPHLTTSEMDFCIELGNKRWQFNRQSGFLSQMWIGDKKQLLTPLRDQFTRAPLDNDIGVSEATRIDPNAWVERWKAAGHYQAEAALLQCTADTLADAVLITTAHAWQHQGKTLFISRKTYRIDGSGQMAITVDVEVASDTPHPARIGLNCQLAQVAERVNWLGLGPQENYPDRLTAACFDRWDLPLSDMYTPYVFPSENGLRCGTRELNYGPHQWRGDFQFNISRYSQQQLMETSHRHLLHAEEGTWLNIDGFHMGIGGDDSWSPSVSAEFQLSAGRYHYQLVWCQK
# [6] = Counterscreen for […] of the human trace amine associated receptor 1 (TAAR1): Fluorescence-based cell-based high throughput dose response assay to identify nonselective Ga16 agonists.; assay type: functional
# [7] = target: T4, Trace amine-associated receptor 1 (Homo sapiens, UniProt Q96RJ0); assay: Fluorescence-based cell-based high throughput dose response assay to identify antagonists of the human trace amine associated receptor 1 (TAAR1).; assay type: functional
# T4 sequence (Q96RJ0 whole entry): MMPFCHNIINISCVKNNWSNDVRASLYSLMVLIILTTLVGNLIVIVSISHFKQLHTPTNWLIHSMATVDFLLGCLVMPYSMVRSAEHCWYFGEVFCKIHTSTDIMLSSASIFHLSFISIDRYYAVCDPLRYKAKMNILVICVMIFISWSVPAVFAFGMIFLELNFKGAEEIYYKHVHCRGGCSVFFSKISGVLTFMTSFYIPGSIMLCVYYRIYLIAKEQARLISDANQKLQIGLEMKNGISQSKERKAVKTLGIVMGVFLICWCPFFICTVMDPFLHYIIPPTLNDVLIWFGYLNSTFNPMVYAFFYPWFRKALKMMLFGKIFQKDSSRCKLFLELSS
# [8] = Counterscreen for antagonists of the human trace amine associated receptor 1 (hTAAR1): Fluorescence-based cell-based high throughput dose response assay to identify nonselective Ga16 antagonists.; assay type: functional
# [9] = target: T4, Trace amine-associated receptor 1; assay: Counterscreen for antagonists of the human trace amine associated receptor 1 (hTAAR1): Fluorescence-based cell-based high throughput dose response assay to identify TAAR1 Agonists.; assay type: functional
# Hexokinase = target: T5, Hexokinase (Trypanosoma brucei, UniProt Q38C41); assay: Confirmation assay for inhibitors of Trypanosoma brucei hexokinase 1-Analogue-first series. [Related pubchem assays (depositor defined):AID1430, AID1632, AID2516, AID2560, AID2579, AID2600, AID449725, AID492951]; assay type: functional
# T5 sequence (Q38C41 whole entry): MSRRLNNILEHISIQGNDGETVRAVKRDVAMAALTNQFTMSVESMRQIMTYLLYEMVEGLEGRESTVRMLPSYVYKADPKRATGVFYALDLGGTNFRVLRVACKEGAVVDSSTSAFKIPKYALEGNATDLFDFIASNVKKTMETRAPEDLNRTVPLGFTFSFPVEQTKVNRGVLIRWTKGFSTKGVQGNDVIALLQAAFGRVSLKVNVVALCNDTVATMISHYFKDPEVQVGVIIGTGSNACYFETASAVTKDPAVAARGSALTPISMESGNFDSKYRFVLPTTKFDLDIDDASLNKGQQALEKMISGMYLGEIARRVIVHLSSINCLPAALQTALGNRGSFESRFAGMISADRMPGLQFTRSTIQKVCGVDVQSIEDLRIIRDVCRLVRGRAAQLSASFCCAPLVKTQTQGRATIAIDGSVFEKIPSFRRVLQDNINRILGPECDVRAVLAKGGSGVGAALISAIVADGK
# [10] = target: SWI/SNF-related matrix-associated actin-dependent regulator of chromatin subfamily A member 2 (Homo sapiens, UniProt P51531); assay: Luminescence-based cell-based high throughput dose response assay to identify activators of the function of SWI/SNF related, matrix associated, actin dependent regulator of chromatin, subfamily a, member 2 (SMARCA2, BRM).; assay type: functional
# Sequence of SWI/SNF-related matrix-associated actin-dependent regulator of chromatin subfamily A member 2 (P51531 whole entry): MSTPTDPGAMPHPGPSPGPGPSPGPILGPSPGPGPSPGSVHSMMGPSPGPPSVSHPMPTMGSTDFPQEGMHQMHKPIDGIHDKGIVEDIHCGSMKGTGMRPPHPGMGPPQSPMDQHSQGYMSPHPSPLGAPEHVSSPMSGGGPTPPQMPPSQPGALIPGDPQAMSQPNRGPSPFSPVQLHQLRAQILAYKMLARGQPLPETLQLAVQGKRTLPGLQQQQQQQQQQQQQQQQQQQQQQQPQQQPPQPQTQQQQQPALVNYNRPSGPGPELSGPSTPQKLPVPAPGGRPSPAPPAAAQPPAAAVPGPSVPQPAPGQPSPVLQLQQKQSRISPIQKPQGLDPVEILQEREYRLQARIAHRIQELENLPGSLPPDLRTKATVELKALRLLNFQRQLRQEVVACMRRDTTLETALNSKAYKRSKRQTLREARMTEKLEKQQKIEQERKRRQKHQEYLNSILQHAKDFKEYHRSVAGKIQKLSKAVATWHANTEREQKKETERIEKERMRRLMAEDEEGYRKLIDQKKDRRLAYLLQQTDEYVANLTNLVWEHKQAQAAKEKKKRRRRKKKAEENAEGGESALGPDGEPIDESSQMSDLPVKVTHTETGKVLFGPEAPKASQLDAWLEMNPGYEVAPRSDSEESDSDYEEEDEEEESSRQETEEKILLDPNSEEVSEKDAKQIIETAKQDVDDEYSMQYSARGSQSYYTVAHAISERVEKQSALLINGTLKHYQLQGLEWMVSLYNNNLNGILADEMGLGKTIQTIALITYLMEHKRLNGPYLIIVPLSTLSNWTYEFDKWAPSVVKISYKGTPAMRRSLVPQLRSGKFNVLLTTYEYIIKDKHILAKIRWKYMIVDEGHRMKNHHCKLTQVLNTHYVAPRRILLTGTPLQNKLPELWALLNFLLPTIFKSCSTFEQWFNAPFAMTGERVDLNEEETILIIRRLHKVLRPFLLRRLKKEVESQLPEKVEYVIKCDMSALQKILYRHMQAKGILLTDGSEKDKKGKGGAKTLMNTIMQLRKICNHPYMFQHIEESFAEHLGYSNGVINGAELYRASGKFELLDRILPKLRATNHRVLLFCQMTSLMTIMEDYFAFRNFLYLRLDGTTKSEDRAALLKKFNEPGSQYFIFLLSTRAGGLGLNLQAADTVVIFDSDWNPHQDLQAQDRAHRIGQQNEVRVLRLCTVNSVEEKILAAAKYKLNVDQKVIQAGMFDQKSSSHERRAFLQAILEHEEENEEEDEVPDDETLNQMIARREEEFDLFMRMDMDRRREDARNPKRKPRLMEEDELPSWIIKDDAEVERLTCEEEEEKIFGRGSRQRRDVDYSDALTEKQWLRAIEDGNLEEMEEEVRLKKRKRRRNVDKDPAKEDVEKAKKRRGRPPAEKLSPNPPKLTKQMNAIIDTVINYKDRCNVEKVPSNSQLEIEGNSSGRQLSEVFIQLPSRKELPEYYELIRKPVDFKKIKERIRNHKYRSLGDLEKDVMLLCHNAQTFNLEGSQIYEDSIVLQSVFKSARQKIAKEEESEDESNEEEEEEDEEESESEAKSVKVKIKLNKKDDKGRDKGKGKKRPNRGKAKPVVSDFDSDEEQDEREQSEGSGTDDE
# [11] = Counterscreen for activators of the function of SWI/SNF related, matrix associated, actin dependent regulator of chromatin, subfamily a, member 2 (SMARCA2, BRM): Luminescence-based cell-based high throughput dose response assay to identify non-selective compounds using the VP16 reporter assay.; assay type: functional
# [12] = HEK293T cytotoxicity, dose response, cytotoxicity control for miR-122 modulator project, cell-based, inhibitor set, cherry-pick, set 2 (AID 720697); assay type: functional
# [13] = HEK293T cytotoxicity, dose response, cytotoxicity control for miR-122 modulator project, cell-based, activator set, cherry-pick (AID 720690); assay type: functional;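 further: HEK293T human cells scored for general mammalian cytotoxicity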
# [14] = target: Disintegrin and metalloproteinase domain-containing protein 17 (Homo sapiens, UniProt P78536); assay: exosite inhibitors of ADAM17, dose response, biochemical (AID 743260)
# Sequence of Disintegrin and metalloproteinase domain-containing protein 17 (P78536 whole entry, the tested form may be a part): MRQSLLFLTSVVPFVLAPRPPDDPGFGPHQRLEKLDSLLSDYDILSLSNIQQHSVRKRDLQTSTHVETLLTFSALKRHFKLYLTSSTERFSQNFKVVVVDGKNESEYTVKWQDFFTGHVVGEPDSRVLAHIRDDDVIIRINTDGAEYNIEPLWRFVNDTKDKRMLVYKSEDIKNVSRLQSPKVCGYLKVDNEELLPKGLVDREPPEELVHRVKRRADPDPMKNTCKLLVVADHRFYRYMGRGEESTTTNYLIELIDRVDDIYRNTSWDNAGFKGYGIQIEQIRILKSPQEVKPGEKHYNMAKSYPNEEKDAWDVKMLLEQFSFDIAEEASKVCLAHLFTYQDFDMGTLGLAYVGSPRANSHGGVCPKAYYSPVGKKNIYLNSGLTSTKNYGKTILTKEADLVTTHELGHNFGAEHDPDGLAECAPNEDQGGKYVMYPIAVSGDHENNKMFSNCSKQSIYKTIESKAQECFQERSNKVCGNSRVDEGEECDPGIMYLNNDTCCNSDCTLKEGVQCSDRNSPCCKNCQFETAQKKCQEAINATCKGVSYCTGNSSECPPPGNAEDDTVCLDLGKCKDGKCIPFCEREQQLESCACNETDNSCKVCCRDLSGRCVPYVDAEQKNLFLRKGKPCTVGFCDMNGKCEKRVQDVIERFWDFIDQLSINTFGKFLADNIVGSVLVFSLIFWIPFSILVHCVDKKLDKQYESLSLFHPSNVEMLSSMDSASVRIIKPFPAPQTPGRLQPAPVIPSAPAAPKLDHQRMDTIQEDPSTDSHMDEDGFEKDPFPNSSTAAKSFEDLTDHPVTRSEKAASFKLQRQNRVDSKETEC
# [15] = ADAM10 protease inhibitors, dose response, selectivity assay for ADAM17 exosite inhibitor project, biochemical, FRET peptide substrate, recombinant human ADAM10 (AID 743259);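 further: ADAM10 enzyme cleaving a FRET peptide substrate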
# [16] = A Cell Based Secondary Assay to Explore Cytotoxicity in THP-1 Cells of Compounds that Modulate Mycobacterium tuberculosis in Media Containing Glycerol versus Media without Glycerol (2).; assay type: functional
# [17] = Vero cell cytotoxicity, cytotoxicity control for M. tuberculosis inhibitor project, purified and synthesized samples, set 3 (AID 504684); assay type: functional
# Paired box protein Pax-8 = Paired box protein Pax-8 (Homo sapiens, UniProt Q06710); assay: inhibitors of PAX8-driven TPO luciferase reporter, dose response, RMG-I cells, cherry-pick (AID 687027); assay type: functional, cell-based;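 further: luciferase reporter driven by Pax8 target thyroperoxidase promoter measured by SteadyGlo luminescence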
# [18] = non-specific cell cytotoxicity, dose response, cytotoxicity control for PAX8 inhibitor project, plate reader, dry powder samples (AID 743021); assay type: functional, cell-based
# [19] = inhibitors of HIV Env-driven cell fusion, dose response, cherry-pick (AID 652057); assay type: functional, cell-based
# [20] = CEM21 lymphoblast cell cytotoxicity, dose response, cytotoxicity control for viral fusion inhibitor project, CellTiter-Glo luminescence, cherry-picked (AID 652042); assay type: functional, cell-based;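 further: potency for signal decrease meaning cytotoxicity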
# [21] = ZM109 Env clade C HIV-1 fusion inhibitors, dose response, HeLa effector, CEM target cells, luciferase, cherry-pick (AID 652058); assay type: functional, cell-based
# [22] = off-target signal loss in HeLa-CEM21 co-culture – HeLa F-luc CTL cells, cherry-picked, counter-screen for HIV-1 Env fusion inhibitor project, dose response (AID 652040); assay type: functional, cell-based;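 further: potency for signal decrease marking cytotoxic or nonspecific inhibition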
# [23] = inhibitors of clade B AD8 Env fusion, dose response, cell-based, cherry-pick (AID 652062); assay type: functional;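 further: luciferase signal from cell-cell fusion driven by HIV-1 clade B AD8 Env; potency is for inhibitors of fusion seen as a drop in luminescence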
# Interleukin-8 [24] = target: T6, Interleukin-8 (Homo sapiens, UniProt P10145); assay: Dose Response confirmation of uHTS small molecule hits for cystic fibrosis induced NFkb Inhibitors in a TNFa-induced IL8 counterscreen.; assay type: functional; details: read-out: IC50_Mean
# T6 sequence (P10145 whole entry): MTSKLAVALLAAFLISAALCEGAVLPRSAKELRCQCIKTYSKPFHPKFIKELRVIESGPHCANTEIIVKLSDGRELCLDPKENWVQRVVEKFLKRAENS
# Interleukin-8 [25] = target: T6, Interleukin-8; assay: Dose Response confirmation of uHTS small molecule hits for cystic fibrosis induced NFkb Inhibitors in a PAF-induced IL8 counterscreen.; assay type: functional; details: read-out: IC50_Mean
structure (smiles),measurement,setting,value
O=C(NNC(=S)Nc1ccccc1Cl)c1ccccc1Cl,IC50,[1],> 122 µM (inactive)
NC(=O)CCC1NC(=S)N(Cc2ccccc2)C1=O (centres undefined),IC50,Albumin,> 94.1 µM (inactive)
C[n+]1c(-c2ccccc2)cc2c(=Cc3ccc([N+](=O)[O-])cc3)c3ccccc3n21,IC50,[2],> 80 µM (inactive)
same,IC50,Nonstructural protein 1,9.36 µM (active)
same,CC50,Vero,34.8 µM (active)
same,IC50,Genome polyprotein,14.2 µM (active)
same,EC50,[3],> 104 µM (inactive)
same,IC50,[4],31.5 µM (active)
same,AC50,Caspase-6,0.309 µM (active)
same,IC50,[5],> 128 µM (inactive)
CCOC(=O)C1=C(Nc2ccc(Cl)cc2)S/C(=C\c2ccccn2)C1=O,IC50,Beta-galactosidase,> 80 µM (inactive)
COc1ccc2oc(C(=O)OCC(=O)NCc3ccccc3OC)c(C)c2c1,EC50,[6],> 29.9 µM (inactive)
same,IC50,[7],6.65 µM (active)
same,IC50,[8],> 29.9 µM (inactive)
same,EC50,[9],7.16 µM (active)
Cn1sc2ccccc2c1=O,IC50,Hexokinase,> 25 µM (inactive)
same,IC50,[2],37.3 µM (inactive)
same,EC50,[10],> 91.2 µM (inactive)
same,EC50,[11],> 91.2 µM (inactive)
CN1C(=O)c2cc(NC(=O)c3ccc(C(F)(F)F)cc3)ccc2OC[C@H]2O[C@H](CC(=O)NC3Cc4ccccc4C3)CC[C@@H]21,AC50,[12],0.324 µM (active)
same,AC50,[13],0.335 µM (active)
Cc1ccc(OCCOCCOc2ccc(Br)cc2/C=N\NC(=O)c2ccncc2)cc1,IC50,[14],> 69.5 µM (inactive)
same,IC50,[15],> 69.5 µM (inactive)
O=C(/C=C/c1ccccc1)N1CCN(CCN2C(=O)c3cccc4cccc(c34)C2=O)CC1,CC50,[16],60.2 µM (active)
same,CC50,[17],> 100 µM (active)
same,IC50,Beta-galactosidase,> 80 µM (inactive)
O=C(NN=Cc1sc(=O)[nH]c1-[n+]1ccc2ccccc2c1)c1ccccc1[O-],IC50,Albumin,> 94.1 µM (inactive)
Cc1cccc(C(C#N)c2nc3ccccc3nc2C(F)(F)F)c1 (centres undefined),EC50,[6],> 29.9 µM (inactive)
same,IC50,[7],1.58 µM (active)
same,IC50,[8],> 29.9 µM (inactive)
same,EC50,[9],> 29.9 µM (inactive)
Brc1ccc2nc(-c3ccc(CN4CCC(c5nc6ccccc6[nH]5)CC4)cc3)c(-c3ccccc3)nc2c1,AC50,Paired box protein Pax-8,9.03 µM (active)
same,AC50,[18],37.8 µM (active)
COc1ccc(OC)c(-c2csc(NC(=O)COC(=O)C3(C)CC3(Cl)Cl)n2)c1 (centres undefined),IC50,[14],> 69.5 µM (inactive)
same,IC50,[15],13.1 µM (inactive)
OCCCn1c(CCNc2nc(-c3ccc(F)cc3)cs2)nc2cc(C(F)(F)F)ccc21,AC50,[19],8.76 µM (active)
same,AC50,[20],51.5 µM (active)
same,AC50,[21],5.8 µM (active)
same,AC50,[22],43.1 µM (active)
same,AC50,[23],16 µM (active)
C=C1C(=O)[C@]23C[C@H]1CCC2[C@@]1(C)C(C[C@@H]3O)[C@](C)(C(=O)O)CC[C@@H]1O (some centres undefined),IC50,Interleukin-8 [24],39.7 µM (inactive)
same,IC50,Interleukin-8 [25],0.817 µM (active)
same,EC50,[10],> 10.1 µM (inactive)
same,EC50,[11],> 91.3 µM (inactive)
